# Test results published in patent US20200392161A1, “SHP2 PHOSPHATASE INHIBITORS AND METHODS OF USE THEREOF” (Relay Therapeutics, Inc., priority 2018, published 2020).
# Where a name gives a salt, the structure may show the parent alone.
# Target: T1, SHP2 (Homo sapiens, UniProt Q06124)
# T1 sequence (Q06124 1-593): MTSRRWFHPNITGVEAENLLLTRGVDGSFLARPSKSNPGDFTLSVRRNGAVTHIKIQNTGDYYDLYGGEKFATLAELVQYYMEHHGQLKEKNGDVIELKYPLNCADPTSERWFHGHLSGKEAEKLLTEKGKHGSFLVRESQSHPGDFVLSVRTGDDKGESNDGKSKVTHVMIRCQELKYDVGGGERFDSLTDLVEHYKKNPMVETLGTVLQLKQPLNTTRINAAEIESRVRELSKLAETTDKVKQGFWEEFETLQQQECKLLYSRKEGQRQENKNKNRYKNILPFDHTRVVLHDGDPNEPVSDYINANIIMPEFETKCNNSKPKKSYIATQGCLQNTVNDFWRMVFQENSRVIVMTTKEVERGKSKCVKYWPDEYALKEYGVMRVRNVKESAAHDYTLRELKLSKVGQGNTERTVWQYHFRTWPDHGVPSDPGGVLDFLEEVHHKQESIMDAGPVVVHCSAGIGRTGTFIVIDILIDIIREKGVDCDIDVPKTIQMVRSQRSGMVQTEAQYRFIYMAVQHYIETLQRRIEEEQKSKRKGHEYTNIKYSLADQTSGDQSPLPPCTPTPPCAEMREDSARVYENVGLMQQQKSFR
# Test: SHP2 allosteric inhibition assay (DiFMUP prompt fluorescence)
# Format: biochemical
# Details: Table 3; 0.25 nM SHP2, 0.5 μM IRS1_pY1172(dPEG8)pY1222 peptide, DiFMUP 100 μM
# Source text: SHP2 Allosteric Inhibition Assay.
# SHP2 is allosterically activated through binding of bis-tyrosyl-phosphorylated peptides to its Src Homology 2 (SH2) domains. The latter activation step leads to the release of the auto-inhibitory interface of SHP2, which in turn renders the SHP2 protein tyrosine phosphatase (PTP) active and available for substrate recognition and reaction catalysis. The catalytic activity of SHP2 was monitored using the surrogate substrate DiFMUP in a prompt fluorescence assay format.
# The inhibitor dose response curves were analyzed using normalized IC50 regression curve fitting with control based normalization.
row,IC50,SMILES
1,> 1000 µM,Cc1ccc(-c2nc(C)c(C(=O)N3CCC(CN)C3)s2)c(C)c1 (stereo not shown) [Compound C47]
2,> 1000 µM,NC1CCCN(C(=O)c2cnc(-c3ccc(C(F)(F)F)cc3)s2)CC1 (stereo not shown) [Compound C48]
3,> 1000 µM,NCC1CCN(C(=O)c2csc(-c3ccccc3F)n2)C1 (stereo not shown) [Compound C49]

# Same assay, conditions: Table 4; 0.25 nM SHP2, 0.5 μM IRS1_pY1172(dPEG8)pY1222 peptide, DiFMUP 100 μM
row,IC50,SMILES
1,1 to 10 µM,"CC1(N)CCN(c2ncnc3c(-c4cccc(Cl)c4Cl)csc23)CC1 [Compound D1, 1-(7-(2,3-dichlorophenyl)thieno[3,2-d]pyrimidin-4-yl)-4-methylpiperidin-4-amine formate]"
2,1 to 10 µM,"CC1(CN)CCN(c2ncnc3c(-c4cccc(Cl)c4Cl)csc23)CC1 [Compound D2, (1-(7-(2,3-dichlorophenyl)thieno[3,2-d]pyrimidin-4-yl)-4-methylpiperidin-4-yl)methanamine]"

# Same assay, conditions: Table 5; 0.25 nM SHP2, 0.5 μM IRS1_pY1172(dPEG8)pY1222 peptide, DiFMUP 100 μM
row,IC50,SMILES
1,50 to 100 µM,"CC1(N)CCN(c2cnn3c(-c4ccccc4Cl)coc23)CC1 [Compound E1, 1-(3-(2-chlorophenyl)pyrazolo[5,1-b]oxazol-7-yl)-4-methylpiperidin-4-amine formate]"
2,< 50 µM,"CC1(CN)CCN(c2cnn3c(-c4ccccc4Cl)coc23)C1 (stereo not shown) [Compound E2, (1-(3-(2-chlorophenyl)pyrazolo[5,1-b]oxazol-7-yl)-3-methylpyrrolidin-3-yl)methanamine]"
3,> 100 µM,"Cc1cc2occ(-c3ccccc3Cl)n2n1 [Compound E3, 3-(2-chlorophenyl)-6-methylpyrazolo[5,1-b]oxazole]"
4,> 100 µM,"Clc1ccccc1-c1coc2ccnn12 [Compound E4, 3-(2-chlorophenyl)pyrazolo[5,1-b]oxazole]"

# Same assay, conditions: Table 6; 0.25 nM SHP2, 0.5 μM IRS1_pY1172(dPEG8)pY1222 peptide, DiFMUP 100 μM
row,IC50,SMILES
1,< 1 µM,"Cn1c(N2CCC(C)(CN)CC2)nc2[nH]nc(N3CCCc4ncccc43)c2c1=O [Compound F1, 6-(4-(aminomethyl)-4-methylpiperidin-1-yl)-3-(3,4-dihydro-1,5-naphthyridin-1(2H)-yl)-5-methyl-1H-pyrazolo[3,4-d]pyrimidin-4(5H)-one, hydrochloride]"
2,> 20 µM,"CC1(N)CCN(c2cc(=O)nc3[nH]nc(-c4cccc(Cl)c4F)n23)CC1 [Compound F2, 5-(4-amino-4-methylpiperidin-1-yl)-3-(3-chloro-2-fluorophenyl)-[1,2,4]triazolo[4,3-a]pyrimidin-7(1H)-one hydrochloride]"
3,> 20 µM,"CC1(N)CCN(c2cc(=O)n3c(-c4cccc(Cl)c4F)n[nH]c3n2)CC1 [Compound F3, 7-(4-amino-4-methylpiperidin-1-yl)-3-(3-chloro-2-fluorophenyl)-[1,2,4]triazolo[4,3-a]pyrimidin-5(1H)-one hydrochloride]"
4,< 1 µM,"Cn1c(N2CCC(C)(CN)CC2)nc2[nH]nc(N3CCc4ccccc43)c2c1=O [Compound F4, 6-(4-(aminomethyl)-4-methylpiperidin-1-yl)-3-(indolin-1-yl)-5-methyl-1H-pyrazolo[3,4-d]pyrimidin-4(5H)-one]"
5,1 to 20 µM,"O=c1c2[nH]nc(-c3cccc(Cl)c3Cl)c2ncn1C1CCNCC1 [Compound F5, 3-(2,3-dichlorophenyl)-6-(piperidin-4-yl)-1H-pyrazolo[4,3-d]pyrimidin-7(6H)-one]"
6,< 1 µM,"Cn1c(N2CCC(C)(CN)CC2)nc2[nH]nc(Sc3cccc(Cl)c3Cl)c2c1=O [Compound F7, 6-(4-(aminomethyl)-4-methylpiperidin-1-yl)-3-((2,3-dichlorophenyl)thio)-5-methyl-1H-pyrazolo[3,4-d]pyrimidin-4(5H)-one hydrochloride]"
7,< 1 µM,"Cn1c(N2CCC(C)(CN)CC2)nc2[nH]nc(Sc3cccc(Cl)c3)c2c1=O [Compound F8, 6-(4-(aminomethyl)-4-methylpiperidin-1-yl)-3-((3-chlorophenyl)thio)-5-methyl-1H-pyrazolo[3,4-d]pyrimidin-4(5H)-one]"
8,< 1 µM,"COc1nc(N2CCC(C)(N)CC2)nc2[nH]nc(-c3cccc(Cl)c3Cl)c12 [Compound F9, 1-[3-(2,3-dichlorophenyl)-4-methoxy-1H-pyrazolo[3,4-d]pyrimidin-6-yl]-4-methyl-piperidin-4-amine]"
9,< 1 µM,"C[C@@H]1OCC2(CCN(c3nc4[nH]nc(N5CCc6ccccc6C5)c4c(=O)n3C)CC2)[C@@H]1N [Compound F12, 6-[(3S,4S)-4-amino-3-methyl-2-oxa-8-azaspiro[4.5]decan-8-yl]-5-methyl-3-(1,2,3,4-tetrahydroisoquinolin-2-yl)-1H,4H,5H-pyrazolo[3,4-d]pyrimidin-4-one]"

row,SMILES,IC50
1,"C[C@@H]1OCC2(CCN(c3nc4[nH]nc(N5CCc6ncccc65)c4c(=O)n3C)CC2)[C@@H]1N [Compound F11, 6-[(3S,4S)-4-amino-3-methyl-2-oxa-8-azaspiro[4.5]decan-8-yl]-5-methyl-3-{1H,2H,3H-pyrrolo[3,2-b]pyridin-1-yl}-1H,4H,5H-pyrazolo[3,4-d]pyrimidin-4-one formate]",1 to 20 µM
